Source: ChEMBL document CHEMBL5532764, “Identification of SARS-CoV-2 Mpro inhibitors through deep reinforcement learning for de novo drug design and computational chemistry approaches” (RSC Med Chem, 2024)

target: Replicase polyprotein 1ab (Severe acute respiratory syndrome coronavirus 2, UniProt P0DTD1)

Point of comparison: `O=C(c1cccnc1)N1CCN(Cc2cc(Cl)cc(Cl)c2OC(F)F)CC1`, IC50 63 µM. Against it:
- O=C(c1cccnc1)N1CCN(Cc2cccc(Cl)c2Cl)CC1 — within 1.5-fold, 63.5 µM

target: Procathepsin L (Homo sapiens, UniProt P07711); assay: Inhibition of human liver Cathepsin L using Z-Phe-Arg7-amido-4-methylcoumarin hydrochloride as substrate by FRET assay
Sequence (P07711 whole entry): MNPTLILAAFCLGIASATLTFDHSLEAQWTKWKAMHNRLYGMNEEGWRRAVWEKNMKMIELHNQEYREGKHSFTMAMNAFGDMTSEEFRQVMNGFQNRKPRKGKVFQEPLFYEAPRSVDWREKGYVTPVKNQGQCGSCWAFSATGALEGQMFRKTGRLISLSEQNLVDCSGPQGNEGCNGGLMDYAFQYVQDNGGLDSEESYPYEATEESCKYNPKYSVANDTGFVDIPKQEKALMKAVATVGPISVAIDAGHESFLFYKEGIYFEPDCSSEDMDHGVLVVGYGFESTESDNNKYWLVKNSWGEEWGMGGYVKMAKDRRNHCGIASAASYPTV

Point of comparison: `O=C(Nn1cnc2c(F)cc(F)cc21)C1COc2cc(Cl)c(Cl)cc21` (racemic), IC50 103 µM. Against it:
- O=C1N(Cc2ccccc2Cl)CCN1c1cncc2ccc(Cl)cc12 — higher, > 125 µM
- O=C(c1cccnc1)N1CCN(Cc2cc(Cl)cc(Cl)c2OC(F)F)CC1 — higher, > 125 µM
- Cc1cncc(CC(=O)N2CCC[C@H]2c2cccc(Cl)c2)c1 — higher, > 125 µM
- O=C(c1cccnc1)N1CCN(Cc2cccc(Cl)c2Cl)CC1 — higher, > 125 µM
- N#Cc1ccccc1CN1CCCN(C(=O)c2cncc(Cl)c2)CC1 — higher, > 125 µM
- Cc1cncc(CC(=O)N2CCc3cc(Cl)c(Cl)cc3C2)c1 — higher, > 125 µM
- O=C(c1cncc(Cl)c1)N1CCCN(Cc2ccccc2Cl)CC1 — higher, > 125 µM
- O=C1N(Cc2ccc(Cl)cc2Cl)CCN1c1cncc2ccccc12 — higher, > 125 µM
- O=C(Cc1cccnc1)N1CCc2c(Cl)cc(Cl)cc2C1 — higher, > 125 µM
- O=C(c1cncc2ccc(F)cc12)N1CCN(Cc2ccc(Cl)cc2Cl)CC1 — higher, > 125 µM
- O=C1N[C@@H](Cc2cc(Cl)ccc2F)C(=O)N1c1cncc(F)c1 — higher, > 125 µM
